In this assay the target is human 5-HT2C(VSV) (Homo sapiens, UniProt P28335, I156V/I160V/N158S). Nature of the assay: cell-based.

Structures are written as SMILES.

human 5-HT2C(VSV), sequence (P28335 33-458 I156V/N158S/I160V limits assumed): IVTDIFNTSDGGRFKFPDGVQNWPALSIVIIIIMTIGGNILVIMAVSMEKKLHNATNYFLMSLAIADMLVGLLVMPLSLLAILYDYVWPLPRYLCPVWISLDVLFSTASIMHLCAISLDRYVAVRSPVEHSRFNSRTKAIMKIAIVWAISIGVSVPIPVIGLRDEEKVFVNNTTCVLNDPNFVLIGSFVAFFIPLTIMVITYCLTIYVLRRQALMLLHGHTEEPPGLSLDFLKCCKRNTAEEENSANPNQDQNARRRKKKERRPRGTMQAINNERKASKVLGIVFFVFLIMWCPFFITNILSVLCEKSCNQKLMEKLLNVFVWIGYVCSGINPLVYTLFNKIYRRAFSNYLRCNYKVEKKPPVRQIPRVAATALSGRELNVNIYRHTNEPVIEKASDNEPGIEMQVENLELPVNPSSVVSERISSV

The term EC50 denotes the concentration needed to bring the measured effect to its halfway point. Read a low EC50 as a more potent agent. Regarding `COc1ccc(-c2ccc[nH]2)c2c1c(CCN(C)C)cn2C` [6-10, 2-(4-methoxy-1-methyl-7-(1H-pyrrol-2-yl)-1H-indol-3-yl)-N,N-dimethylethanamine], the EC50 lay in the range of 500 to 10000 nM. In the case of `CN(C)CCc1cn(Cc2ccco2)c2c(F)ccc(OCc3ccccc3)c12` [24-1, 2-(4-(benzyloxy)-7-fluoro-1-(furan-2-ylmethyl)-1H-indol-3-yl)-N,N-dimethylethanamine] it was 1 to 500 nM; in that of `CNCCc1cn(C)c2ccc(F)c(OCc3ccc(Cl)c(OC(F)(F)F)c3)c12` [33-49, 2-(4-(4-chloro-3-(trifluoromethoxy)benzyloxy)-5-fluoro-1-methyl-1H-indol-3-yl)-N-methylethanamine], below 10000 nM; in that of `CCn1cc(CCN2Cc3ccccc3C2)c2c(OCc3ccccc3)cc(F)cc21` [31-3, 4-(benzyloxy)-1-ethyl-6-fluoro-3-(2-(isoindolin-2-yl)ethyl)-1H-indole], 500 to 10000 nM. For the molecule `COc1c(F)ccc2c1c(CCN[C@@H]1CCCc3ccccc31)cn2C` [17-17, (R)-N-(2-(5-fluoro-4-methoxy-1-methyl-1H-indol-3-yl)ethyl)-1,2,3,4-tetrahydronaphthalen-1-amine], the EC50 was 1 to 500 nM.

In turn, `CCn1cc(CCNCCOC)c2c(O)cc(F)cc21` [11-11, 1-ethyl-6-fluoro-3-(2-(2-methoxyethylamino)ethyl)-1H-inol-4-ol] registered an EC50 of 1 to 500 nM. In the case of `CCn1cc(CCNc2ccccc2)c2c(O)ccc(F)c21` [11-7, 1-ethyl-7-fluoro-3-(2-(phenylamino)ethyl)-1H-indol-4-ol] it was 500 to 10000 nM; in that of `NCCc1cn(CC2CCCCO2)c2ccc(F)c(O)c12` (stereo not drawn) [19-3, 3-(2-Aminoethyl)-5-fluoro-1-((tetrahydro-2H-pyran-2-yl)methyl)-1H-indol-4-ol], 1 to 500 nM. Regarding `CCCn1cc(CCNCc2cccc(C)n2)c2c(O)c(F)ccc21` [17-19, 5-fluoro-3-(2-(((6-methylpyridin-2-yl)methyl)amino)ethyl)-1-propyl-1H-indol-4-ol], the half-maximal effective concentration (EC50) was below 10000 nM.

Molecule `COc1ccc(S(=O)(=O)c2ccccc2)c2c1c(CCN(C)C)cn2C` [25-1, 2-(4-methoxy-1-methyl-7-(phenylsulfonyl)-1H-indol-3-yl)-N,N-dimethylethanamine] gave an EC50 of 1 to 500 nM. On to `CCn1cc(CCN(C)C)c2c(OCc3ccc(C(F)(F)F)cc3)cc(F)cc21` [1-12b, 2-(1-ethyl-6-fluoro-4-(4-(trifluoromethyl)benzyloxy)-1H-indol-3-yl)-N,N-dimethylethanamine], for which the EC50 is 500 to 10000 nM.

With `CCn1cc(CCN(C)C)c2c(OCc3ccc(OC(F)(F)F)cc3)cc(F)cc21` [1-11b, 2-(1-ethyl-6-fluoro-4-(4-(trifluoromethoxy)benzyloxy)-1H-indol-3-yl)-N,N-dimethylethanamine], the EC50 was in the range of 500 to 10000 nM. The value for `CCOc1c(F)ccc2c1c(CCN1CCCC1)cn2C` [30-29, 4-ethoxy-5-fluoro-1-methyl-3-(2-(pyrrolidin-1-yl)ethyl)-1H-indole] was 1 to 500 nM. The value for `CCCn1cc(CCN)c2c(OCc3ccc(Cl)cc3)c(F)ccc21` [18-3, 2-(4-(4-chlorobenzyloxy)-5-fluoro-1-propyl-1H-indol-3-yl)ethanamine] was below 10000 nM; that for `COc1ccc(-c2cccnc2)c2c1c(CCN(C)C)cn2C` [6-14, 2-(4-methoxy-1-methyl-7-(pyridin-3-yl)-1H-indol-3-yl)-N,N-dimethylethanamine] was 1 to 500 nM; that for `CCn1cc(CCNCc2cccc(C(F)(F)F)c2)c2c(OCc3ccccc3)cc(F)cc21` [31-8, 2-(4-(benzyloxy)-1-ethyl-6-fluoro-1H-indol-3-yl)-N-(3-(trifluoromethyl)benzyl)ethanamine] was 500 to 10000 nM.

In turn, `CN(C)CCc1cn(C)c2ccc(F)c(OCc3cccs3)c12` [1-20a, 2-(5-fluoro-1-methyl-4-(thiophen-2-ylmethoxy)-1H-indol-3-yl)-N,N-dimethylethanamine] gave a concentration giving a half-maximal response (EC50) of 1 to 500 nM.

On to `COc1c(F)ccc2c1c(CCN1CCN(c3ccccc3)CC1)cn2C` [17-14, 5-fluoro-4-methoxy-1-methyl-3-(2-(4-phenylpiperazin-1-yl)ethyl)-1H-indole], for which the EC50 was in the range of 500 to 10000 nM.

`CNCCc1cn(C)c2cc(F)cc(OCc3ccc(Cl)cc3)c12` [33-45, 2-(4-(4-chlorobenzyloxy)-6-fluoro-1-methyl-1H-indol-3-yl)-N-methylethanamine] yielded an EC50 of 1 to 500 nM. In the case of `CCn1cc(CCN2C[C@@H](C)O[C@@H](C)C2)c2c(O)cc(F)cc21` [11-13] it was 500 to 10000 nM. `CCOc1c(F)ccc2c1c(CCNCc1ccc3c(c1)OCO3)cn2C` [30-18, N-(benzo[d][1,3]dioxol-5-ylmethyl)-2-(4-ethoxy-5-fluoro-1-methyl-1H-indol-3-yl)ethanamine] yielded an EC50 of 1 to 500 nM. The value for `COc1c(F)ccc2c1c(CCN1CCc3ccc(Cl)cc3C(C)C1)cn2C` (stereo not drawn) [17-8, 8-chloro-3-(2-(5-fluoro-4-methoxy-1-methyl-1H-indol-3-yl)ethyl)-1-methyl-2,3,4,5-tetrahydro-1H-benzo[d]azepine] was 1 to 500 nM; that for `COc1c(F)ccc2c1c(CCNC(C)c1ccccc1)cn2C` (stereo not drawn) [34-10, 2-(5-fluoro-4-methoxy-1-methyl-1H-indol-3-yl)-N-(1-phenylethyl)ethanamine] was 1 to 500 nM; that for `CNCCc1cn(C)c2ccc(F)c(OCc3ccc(Cl)cc3Cl)c12` [33-48, 2-(4-(2,4-dichlorobenzyloxy)-5-fluoro-1-methyl-1H-indol-3-yl)-N-methylethanamine] was below 10000 nM. Molecule `CN(C)CCc1cn(Cc2ccc3ccccc3c2)c2c(F)ccc(OCc3ccccc3)c12` [7-6, 2-(4-(benzyloxy)-7-fluoro-1-(naphthalen-2-ylmethyl)-1H-indol-3-yl)-N,N-dimethylethanamine] showed an EC50 of 1 to 500 nM. In the case of `NCCc1cn(CC(N)=O)c2ccc(F)c(O)c12` [19-7, 2-(3-(2-aminoethyl)-5-fluoro-4-hydroxy-1H-indol-1-yl)acetamide] it was below 10000 nM; in that of `CCn1cc(C2CCCNC2)c2c(O)cc(F)cc21` (stereo not drawn) [38-4, 1-ethyl-6-fluoro-3-(piperidin-3-yl)-1H-indol-4-ol], 1 to 500 nM; in that of `CCn1cc(CCNCc2cccc(Cl)c2)c2c(O)cc(F)cc21` [31-11, 3-(2-(3-chlorobenzylamino)ethyl)-1-ethyl-6-fluoro-1H-indol-4-ol], 1 to 500 nM. In the case of `CCn1cc(CCN2CCCOCC2)c2c(O)cc(F)cc21` [11-12, 3-(2-(1,4-oxazepan-4-yl)ethyl)-1-ethyl-6-fluoro-1H-indol-4-ol] it was 500 to 10000 nM; in that of `CCn1cc(C2=CCNCC2)c2c(OCc3ccccc3)cc(F)cc21` [37-2, 4-(benzyloxy)-1-ethyl-6-fluoro-3-(1,2,3,6-tetrahydropyridin-4-yl)-1H-indole], 500 to 10000 nM. `CNCCc1cn(C)c2ccc(F)c(OCc3ccc(C)cc3)c12` [33-27, 2-(5-fluoro-1-methyl-4-(4-methylbenzyloxy)-1H-indol-3-yl)-N-methylethanamine] gave an EC50 of 1 to 500 nM. The value for `COc1ccc(-c2ccoc2)c2c1c(CCN(C)C)cn2C` [6-9, 2-(7-(furan-3-yl)-4-methoxy-1-methyl-1H-indol-3-yl)-N,N-dimethylethanamine] was 500 to 10000 nM; that for `CN(C)CCc1cn(Cc2cccs2)c2c(F)ccc(OCc3ccccc3)c12` [7-4, 2-(4-(benzyloxy)-7-fluoro-1-(thiophen-2-ylmethyl)-1H-indol-3-yl)-N,N-dimethylethanamine] was 1 to 500 nM. The molecule `CCn1cc(CCN2CCC(F)(F)C2)c2c(O)cc(F)cc21` [11-14, 3-(2-(3,3-difluoropyrrolidin-1-yl)ethyl)-1-ethyl-6-fluoro-1H-indol-4-ol] displayed an EC50 of 500 to 10000 nM. The value for `CCOc1c(F)ccc2c1c(CCNC1Cc3ccccc3C1)cn2C` [30-16, N-(2-(4-ethoxy-5-fluoro-1-methyl-1H-indol-3-yl)ethyl)-2,3-dihydro-1H-inden-2-amine] was 1 to 500 nM; that for `COc1ccc(-c2cccs2)c2c1c(CCN(C)C)cn2C` [6-7, 2-(4-methoxy-1-methyl-7-(thiophen-2-yl)-1H-indol-3-yl)-N,N-dimethylethanamine] was 500 to 10000 nM; that for `CCn1cc(CCN(C)C)c2c(OC)c(CCCN)cc(F)c21` [28-4, 3-(3-(2-(dimethylamino)ethyl)-1-ethyl-7-fluoro-4-methoxy-1H-indol-5-yl)propan-1-amine] was 1 to 500 nM.

As for `COc1ccc(-c2ccsc2)c2c1c(CCN(C)C)cn2C` [6-13, 2-(4-methoxy-1-methyl-7-(thiophen-3-yl)-1H-indol-3-yl)-N,N-dimethylethanamine], the EC50 was 500 to 10000 nM. In turn, `CCn1cc(CCN(C)C)c2c(Oc3ccccc3)cc(F)cc21` [32-2, 2-(1-ethyl-6-fluoro-4-phenoxy-1H-indol-3-yl)-N,N-dimethylethanamine] yielded an EC50 of 500 to 10000 nM. `CCOc1c(F)ccc2c1c(CCNCc1ccccc1)cn2C` [30-15, N-benzyl-2-(4-ethoxy-5-fluoro-1-methyl-1H-indol-3-yl)ethanamine] had an EC50 of 1 to 500 nM. As to `COc1c(F)ccc2c1c(CCN1CCCC1C(N)=O)cn2C` (stereo not drawn) [17-9, 1-(2-(5-fluoro-4-methoxy-1-methyl-1H-indol-3-yl)ethyl)pyrrolidine-2-carboxamide], the EC50 is 500 to 10000 nM. The value for `CCn1cc(CCN(C)C)c2c(OCc3cc(F)ccc3C)cc(F)cc21` [1-17b, 2-(1-ethyl-6-fluoro-4-(5-fluoro-2-methylbenzyloxy)-1H-indol-3-yl)-N,N-dimethylethanamine] was 1 to 500 nM; that for `CNCCc1cn(C)c2ccc(F)c(OCCc3ccccc3C)c12` [33-17, 2-(5-fluoro-1-methyl-4-(2-methylphenethoxy)-1H-indol-3-yl)-N-methylethanamine] was 1 to 500 nM; that for `COc1ccc(CCCO)c2c1c(CCN(C)C)cn2C` [25-4, 3-(3-(2-(dimethylamino)ethyl)-4-methoxy-1-methyl-1H-indol-7-yl)propan-1-ol] was 500 to 10000 nM.

For `Cn1cc(CCNCc2ccccc2)c2c(O)c(F)ccc21` [33-47, 3-(2-(benzylamino)ethyl)-5-fluoro-1-methyl-1H-indol-4-ol], the EC50 lay in the range of 1 to 500 nM.

These data come from patent publication US8912220B2 (priority 2009, dated 2014).
